Results: patent US12642270B2, “Substituted thiophene carboxamides, thiophene carboxylic acids and derivatives thereof” (Bayer Aktiengesellschaft, priority 2019, dated 2026)

Assay: Log P by HPLC on reversed phase columns (EEC directive 79/831 Annex V.A8)
Type: physicochemical
Settings: for chromatographic logP: reversed phase HPLC columns, value in preparation example, method not marked
Procedure, shortened: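 Values come from retention times calibrated against alkan-2-ones (3–16 carbons) by linear interpolation, using reversed-phase LC-UV per EEC directive 79/831 Annex V.A8. Acetonitrile gradient 10–95% with 0.1% formic acid [a], 0.001 M ammonium acetate [b] or 0.1% phosphoric acid [c]; several values within one method separated by "+".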

[1] = method marker [a] given with each value, Table 1.1, compounds of formula (I)
[2] = method [a]: LC-UV, acidic range, 0.1% formic acid in water and acetonitrile

| SMILES | LogP [1] | other results |
| --- | --- | --- |
| O=C(CNC(=O)c1sc(Br)c(Br)c1Cl)SCc1ccccc1 [1.0997] | 4.62^[a] |  |
| CCSC(=O)C(NC(=O)c1sc(Br)c(Br)c1Cl)C(C)C (stereo not shown) [1.0998] | 5.45^[a] |  |
| CCOC(=O)CNC(=S)c1sc(Br)c(Br)c1F [1.0999] | 4.23^[a] |  |
| CC(C)COC(=O)CNC(=O)c1sc(Br)c(Br)c1F [1.1000] | 3.88^[a] |  |
| CNC(=S)CNC(=O)c1sc(Br)c(Br)c1F [1.1001] | 2.56^[a] |  |
| CN(C)C(=S)CNC(=O)c1sc(Br)c(Br)c1F [1.1002] | 3.19^[a] |  |
| COC(=O)C1(NC(=O)c2sc(Cl)c(Br)c2Cl)CCC1 [1.1003] | 3.74^[a] |  |
| COC(=O)C1(NC(=O)c2sc(Cl)c(Cl)c2Br)CCC1 [1.1004] | 3.85^[a] |  |
| O=C(CNC(=O)c1sc(Br)c(Br)c1F)OC1CSC1 [1.1007] | 3.37^[a] |  |
| N#CCOC(=O)CNC(=O)c1sc(Br)c(Br)c1F [1.1008] | 2.67^[a] |  |
| CC(C)C(C#N)NC(=O)c1sc(Br)c(Br)c1F (stereo not shown) [1.1010] | 3.54^[a] |  |
| CC(C)C(C#N)NC(=O)c1sc(Cl)c(Cl)c1Br (stereo not shown) [1.1013] | 3.84^[a] |  |
| N#CC1(NC(=O)c2sc(Cl)c(Cl)c2Br)CCC1 [1.1014] | 3.37^[a] |  |
| Cc1c(C(=O)NC2(C#N)CCC2)sc(C#N)c1Br [1.1015] | 2.64^[a] |  |
| Cc1c(C(=O)NC(C#N)C(C)C)sc(C#N)c1Br (stereo not shown) [1.1016] | 3.03^[a] |  |
| O=C(NC1(C(=O)O)CCC1)c1sc(Cl)c(Cl)c1Br [1.1017] | 2.95^[a] |  |
| O=C(CNC(=O)c1sc(Br)c(Br)c1F)OC1CCOCC1 [1.1018] | 2.80^[a] |  |
| COC(=O)C(C)(C)NC(=O)c1sc(Cl)c(Br)c1Cl [1.1019] | 3.73^[a] |  |
| COC(=O)C(C)(C)NC(=O)c1sc(Br)c(Br)c1Cl [1.1020] | 3.75^[a] |  |
| COC(=O)C(C)(C)NC(=O)c1sc(Cl)c(Cl)c1Br [1.1021] | 3.71^[a] |  |
| CC(C)(NC(=O)c1sc(Cl)c(Br)c1Cl)C(=O)O [1.1022] | 2.80^[a] |  |
| CC(C)(NC(=O)c1sc(Br)c(Br)c1Cl)C(=O)O [1.1023] | 2.81^[a] |  |
| CC(C)(NC(=O)c1sc(Cl)c(Cl)c1Br)C(=O)O [1.1024] | 2.80^[a] |  |
| COC(=O)C(CCSC(C)=O)NC(=O)c1sc(Br)c(Br)c1Cl (stereo not shown) [1.1025] | 3.98^[a] |  |

| SMILES | LogP [1] | other results |
| --- | --- | --- |
| O=C(CNC(=O)c1sc(Br)c(Br)c1F)OCC(F)(F)F [1.1026] | 3.40^[a] |  |
| C[Si](C)(C)COC(=O)CNC(=O)c1sc(Br)c(Br)c1F [1.1027] | 4.40^[a] |  |
| COC(=O)C(CCSC(C)=O)NC(=O)c1sc(Cl)c(Cl)c1Br (stereo not shown) [1.1028] | 3.98^[a] |  |
| O=C(O)C(NC(=S)c1sc(Br)c(Br)c1F)C1CC1 (stereo not shown) [1.1029] | 3.45^[a] |  |
| O=C(O)CNC(=S)c1sc(Cl)c(Cl)c1I [1.1030] | 3.13^[a] |  |
| CCOC(=O)C1(NC(=O)c2sc(C#N)c(Cl)c2Cl)CSC1 [1.1041] | 3.23^[a] |  |
| COC(=O)[C@H](CC(=O)O)NC(=O)c1sc(Br)c(Br)c1F [1.1043] | 2.28^[a] |  |
| COC(=O)[C@H](CC(=O)O)NC(=O)c1sc(Cl)c(Cl)c1Br [1.1044] | 2.58^[a] |  |
| CNC(=O)CNC(=O)c1sc(Br)c(Br)c1Cl [1.1045] | 2.07^[a] |  |
| CCOC(=O)C1(NC(=O)c2sc(Br)c(Cl)c2Cl)CSC1 [1.1046] | 3.94^[a] |  |
| COC(=O)[C@H](CC(N)=O)NC(=O)c1sc(Cl)c(Cl)c1Br [1.1047] | 2.23^[a] |  |
| COC(=O)[C@H](CCC(N)=O)NC(=O)c1sc(Br)c(Br)c1F [1.1048] | 2.05^[a] |  |
| COC(=O)[C@H](CCC(N)=O)NC(=O)c1sc(Cl)c(Cl)c1Br [1.1049] | 2.25^[a] |  |
| COC(=O)[C@H](CCC(=O)O)NC(=O)c1sc(Cl)c(Cl)c1Br [1.1050] | 2.68^[a] |  |
| CCOC(=O)C1(NC(=O)c2sc(Br)c(Br)c2C#N)CSC1 [1.1051] | 3.15^[a] |  |
| CCOC(=O)C1(NC(=O)c2sc(Br)c(Br)c2C(F)F)CSC1 [1.1052] | 3.58^[a] |  |
| COC(=O)C(C)(C)NC(=O)c1sc(C#N)c(Br)c1Br [1.1053] | 3.34^[a] |  |
| CCOC(=O)C1(NC(=O)c2sc(Cl)c(Cl)c2C#N)CSC1 [1.1054] | 3.05^[a] |  |
| N#CC1(NC(=O)c2sc(Br)c(Br)c2Cl)CCCSC1 (stereo not shown) [1.1055] | 3.85^[a] |  |
| N#CC1(NC(=O)c2sc(Br)c(Br)c2F)CCCSC1 (stereo not shown) [1.1056] | 3.41^[a] |  |
| CCOC(=O)C1(NC(=O)c2sc(Cl)c(Br)c2C)CSC1 [1.1057] | 3.66^[a] |  |
| N#CCNC(=O)c1sc(C#N)c(Br)c1Br [1.1058] | 2.12^[a] |  |
| CCOC(=O)C1(NC(=O)c2sc(Cl)c(Cl)c2C(F)F)CSC1 [1.1059] | 3.55^[a] |  |
| CCOC(=O)C1(NC(=O)c2sc(Cl)c(Br)c2Br)CSC1 [1.1060] | 3.91^[a] |  |

| SMILES | LogP [1] | other results |
| --- | --- | --- |
| COC(=O)C(C)(C)NC(=O)c1sc(Br)c(Br)c1C(F)F [1.1061] | 3.21^[a] |  |
| CCOC(=O)C(C)(C)NC(=O)c1sc(Cl)c(Cl)c1Br [1.1062] | 4.24^[a] |  |
| CCOC(=O)C1(NC(=O)c2sc(Br)c(Cl)c2C)CSC1 [1.1063] | 3.62^[a] |  |
| CCOC(=O)C(CO)NC(=O)c1sc(Br)c(Br)c1C(F)F (stereo not shown) [1.1064] | 2.63^[a] |  |
| COC(=O)C(CCSC)NC(=O)c1sc(Br)c(Br)c1C(F)F (stereo not shown) [1.1065] | 3.55^[a] |  |
| COC(=O)C(NC(=O)c1sc(Br)c(Br)c1C(F)F)C(=O)OC [1.1067] | 3.05^[a] |  |
| CCOC(=O)C(CO)NC(=O)c1sc(Cl)c(Cl)c1C(F)F (stereo not shown) [1.1068] | 2.67^[a] |  |
| COC(=O)C(CCSC)NC(=O)c1sc(Cl)c(Cl)c1C(F)F (stereo not shown) [1.1069] | 3.52^[a] |  |
| COC(=O)C(C)(C)NC(=O)c1sc(Cl)c(Cl)c1C(F)F [1.1070] | 3.16^[a] |  |
| O=C(NC1CCSC1=O)c1sc(Br)c(Br)c1F (stereo not shown) [I.0006] |  | LogP [2]: 2.84^[a] |
| O=C(N[C@H]1CCSC1=O)c1sc(Br)c(Br)c1F [I.0017] |  | LogP [2]: 2.89^[a] |
| Cc1c(C(=O)NC2CCSC2=O)sc(Cl)c1Br (stereo not shown) [I.0023] |  | LogP (method [a]: LC-UV, acidic range, 0.1% formic acid in water and acetonitrile, listed as 1.0023): 2.99^[a] |
| CCOC(=O)CNC(=O)c1sc(C#N)c(Br)c1C [I.0024, ethyl N-[(4-bromo-5-cyano-3-methyl-2-thienyl)carbonyl]glycinate] |  | chromatographic logP: 2.4 |
| O=C(NC1CCOC1=O)c1sc(Br)c(Br)c1F (stereo not shown) [I.0060] |  | LogP (method [a]: LC-UV, acidic range, 0.1% formic acid in water and acetonitrile, listed as 1.0060): 2.25^[a] |
| O=C(NC1CCCNC1=O)c1sc(Br)c(Br)c1F (stereo not shown) [I.0061] |  | LogP [2]: 2.01^[a] |
| CC[C@H](C)[C@H](NC(=O)c1sc(Cl)c(Br)c1C)C(=O)OC [I.0123] |  | LogP [2]: 4.27^[a] |
| CCSC(=O)C1(NC(=O)c2sc(Br)c(Br)c2I)CC1 [I.0139, S-ethyl 1-{[(4,5-dibromo-3-iodo-2-thienyl)carbonyl]amino}cyclopropanecarbothioate] |  | chromatographic logP: 3.96 |
| CC[C@H](C)[C@H](NC(=O)c1sc(Br)c(Br)c1F)C(=O)OC [I.0141] |  | LogP [2]: 4.37^[a] |
| O=C(NC1(C(=O)O)CCC1)c1sc(Br)c(Br)c1F [I.0172, 1-{[(4,5-dibromo-3-fluoro-2-thienyl)carbonyl]amino}cyclobutanecarboxylic acid] |  | chromatographic logP: 2.57 |
| O=C(NC1CCNC1=O)c1cc(Cl)c(Br)s1 (stereo not shown) [I.0218] |  | LogP [2]: 1.71^[a] |
| O=C1CC(NC(=O)c2cc(Cl)c(Br)s2)CCN1 (stereo not shown) [I.0219] |  | LogP [2]: 1.77^[a] |
| O=C(NC1CCOC1=O)c1cc(Cl)c(Br)s1 (stereo not shown) [I.0220] |  | LogP [2]: 2.09^[a] |
